Structures are written as SMILES.

The experiment deals with human serum albumin (HSA) (Homo sapiens, UniProt P02768). The experiment can be described thus: fluorescent probe displaced from HSA by GdLx. It counts as binding.
Sequence of human serum albumin (HSA) (P02768 25-609): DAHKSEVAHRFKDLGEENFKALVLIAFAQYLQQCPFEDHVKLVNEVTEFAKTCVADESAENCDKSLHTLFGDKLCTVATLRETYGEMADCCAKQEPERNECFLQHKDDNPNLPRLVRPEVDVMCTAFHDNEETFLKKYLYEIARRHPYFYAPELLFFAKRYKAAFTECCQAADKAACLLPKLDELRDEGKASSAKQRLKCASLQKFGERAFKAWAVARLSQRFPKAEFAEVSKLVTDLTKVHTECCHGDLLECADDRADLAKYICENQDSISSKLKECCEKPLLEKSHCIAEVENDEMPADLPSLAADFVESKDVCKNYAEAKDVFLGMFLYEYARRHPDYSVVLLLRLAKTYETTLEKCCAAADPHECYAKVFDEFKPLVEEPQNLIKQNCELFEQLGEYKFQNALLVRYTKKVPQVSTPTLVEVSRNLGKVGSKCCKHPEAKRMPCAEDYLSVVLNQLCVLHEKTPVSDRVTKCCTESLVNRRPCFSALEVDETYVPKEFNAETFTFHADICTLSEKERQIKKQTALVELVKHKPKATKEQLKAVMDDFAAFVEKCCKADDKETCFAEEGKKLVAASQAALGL

With `CN(C)c1cccc2c(S(=O)(=O)NCC(=O)O)cccc12` [dansylglycine], the “fluorescent probe displaced from HSA by GdLx” value is “Determined by displacement of fluorescent dansylglycine from HSA upon addition of GdLx”.

These data come from publication PMC6594366 (Journal of the American Chemical Society, 2018).
